Target: Human MAT2A (Homo sapiens (Human), UniProt P31153)
Test: Phosphate Sensor Fluorescence Assay (MAT2A enzyme inhibition)
Type: biochemical
Settings: L-methionine 500 uM, ATP 500 uM
Procedure: The ability of the compound of present disclosure to inhibit MAT2A enzyme was determined using the Malachite Green or Phosphate Sensor Fluorescence Assay described below.
B. Phosphate Sensor Fluorescence Assay
MAT2A enzyme is incubated with a test compound in DMSO or DMSO and its substrates (L-methionine and ATP) in a microtiter plate. The enzymatic reaction is stopped by the addition of Working Phosphate Sensor Mixture. The plate is analyzed for fluorescence at 450 nm.
Assay Buffer: 50 mM Tris, pH 7.5/50 mM KCl/10 mM MgCl2/0.01% Brij-35/1 mM DTT/0.1% BGG/40 nM PNP/6 uM 7-MEG
L-methionine: 500 uM before the addition of Working Phosphate Sensor Mixture
ATP: 500 uM before the addition of Working Phosphate Sensor Mixture
Test compounds or DMSO were added to the appropriate well suing D300e digital dispenser. 5 μl/well of Assay Buffer was added to the wells corresponding to the negative control and 5 μl/well of MAT2A was added to all the wells except for those corresponding to the negative control. After incubating the plate at room temperature for 15 minutes, 5 μl/well of the 1 mM L-methionine/1 mM ATP mixture was added to all wells. The plate was centrifuged at 1000 rpm for 1 minute and then incubated at room temperature for 1 hour. 5 μl of the Working Phosphate Sensor Mixture was added to all wells and the plate was centrifuged at 1000 rpm for 1 minute. The plate was read for fluorescence at 450 nm after exciting at 430 nm.
Percent inhibition was calculated in Chemical and Biological Information System (CBIS), (ChemInnovation Software Inc.). Curves were fitted by CBIS as % inhibition vs. log [compound concentration] using a 4-parameter inhibition model. Fit=(A+((B−A)/(1+((C/x)^D)))) Res=(y−fit)

Chain of Human MAT2A (P31153 whole entry): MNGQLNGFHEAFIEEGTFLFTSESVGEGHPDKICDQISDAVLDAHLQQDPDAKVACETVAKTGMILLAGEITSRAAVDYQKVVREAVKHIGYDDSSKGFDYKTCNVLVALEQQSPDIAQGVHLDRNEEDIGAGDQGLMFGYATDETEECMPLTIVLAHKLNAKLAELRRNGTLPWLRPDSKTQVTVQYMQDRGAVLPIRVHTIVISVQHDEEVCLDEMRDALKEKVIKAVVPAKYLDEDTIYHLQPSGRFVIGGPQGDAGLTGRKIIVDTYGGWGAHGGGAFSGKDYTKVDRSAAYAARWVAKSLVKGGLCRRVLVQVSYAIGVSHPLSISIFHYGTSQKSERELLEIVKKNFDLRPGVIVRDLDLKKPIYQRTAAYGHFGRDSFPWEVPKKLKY

IC50 (numeric bound) [nM]	IC50 (class symbols) [nM]	Molecule
> 10000		8-chloro-1-(2-chlorophenyl)-7- (trifluoro-methyl)pyrido[2,3- d]pyrimidine-2,4(1H,3H)-dione-1 [Example 360]
	< 200	CCCc1ccc2c(N(C)C)nc(=O)n(-c3ccccc3)c2c1 [compound 98]
	< 200	O=c1nc(N2CC[C@@H](O)C2)c2ccc(Cl)cc2n1-c1ccccc1O [compound 152]

Source: patent US11130759B1, “2-oxoquinazoline derivatives as methionine adenosyltransferase 2A inhibitors” (IDEAYA BIOSCIENCES, INC., priority 2018, dated 2021)
